The source of these data is US20030082135A1, “Pathway of RANTES-mediated chemokine synthesis in astrocytes and methods of use therefor” (priority 2001, published 2003).

Series [1] deals with primary neonatal mouse astrocyte cultures. Nature of the series: RNase protection assay (RPA) for chemokine/cytokine transcripts in astrocyte cultures. Format: cell-based. The procedure:
Astrocyte isolation and culture. […] RNA isolation and RNase protection assay (RPA). […] RNase protection assays (RPA) for chemokine message were conducted with multi-probe templates according to the manufacture's protocol (RiboQuant assay kit, BD-PharMingen, San Diego, Calif.). Gels were scanned and radioactive bands quantitated using a phosphoimager (Molecular Dynamics, Sunnyvale, Calif.). Levels of uniformly expressed housekeeping genes large ribosomal subunit protein 32-3A (L32) or glyceraldehyde-3-phosphate dehydrogenase (GAPDH), were used for normalization. The value of each chemokine receptor band divided by the value of the indicated housekeeping gene band in the same sample yielded the relative intensity. Normalized receptor expression represents the ratio of the relative intensity following treatment with chemokine versus the relative intensity of medium alone. Treatment with pharmacological inhibitors. Astrocytes were washed and resuspended in serum-and insulin-free complete medium and starved overnight. Cells were treated at 37° C. for 1 h with 100 ng/ml Pertussis toxin (PTx) before addition of RANTES or IL-1. […] The cells were harvested after a 3 h incubation with RANTES; RNA was prepared and assayed by RPA.

For the next series, the system named is PKA. Description: PKA activity assay on lysates of treated astrocytes. Format: cell-based, mouse. The procedure:
PKA activity assay. PKA activity was determined using a commercially available kit (Calbiochem, San Diego, Calif.) according to manufacturer's recommendations. Primary mouse astrocytes were grown in 6-well plates and then stimulated as described and lysed in 100 μl buffer (same buffer used for Western blotting) for 30 min. Five μl of the lysates were incubated with 20 μl PKA reaction mixture at 30° C. for 30 min. The reaction was terminated by adding 10 μl stop solution and ^32P radioactivity was counted.

The next series concerns astrocytes. Description: ELISA of KC, TNF-α and MCP-1 protein in astrocyte culture supernatants. The series is classed as cell-based, mouse. The settings on record: 48 h, 1.5 to 100 ng/ml tested. A general note: In an ELISA, binding on a coated surface is turned into a signal by an enzyme label.

Consider RANTES, for which the “production of chemokine transcripts by astrocytes from mice deficient for CCR1, CCR2, CCR3, or CCR5” value in series [1] (100 ng/ml) was “specifically responded”. Further, in series [1] (BALB/cJ neonatal astrocytes, chemokine for 6 h), the “expression of TNF-α, RANTES, KC, MIP-1α, MIP-2, and MCP-1 transcripts” value is reported as “up-regulated”. In series [1] (RANTES-induced), the “duration of RANTES transcription” value is reported as “greater than 24 h”; the “time after which TNF-α mRNA disappeared” value was 18 h; the “time at which TNF-α mRNA was detected” value worked out at 1.5 h; the “time at which bands for RANTES and MIP-1α were visible” value was 3 h. In addition, in series [1] (RANTES-induced), the “time by which MIP-1α mRNA was down regulated” value is no more than 24 h and the “time of transient production of IL-6 transcripts” value was in the range of 6 to 24 h. In series [1] (RANTES-induced, any time point), the “transcripts for the chemokine TCA3” value is “not detected”. Also, in series [1] (after RANTES stimulation), the “time at which RANTES and IL-6 transcripts appear” value was in the range of 4 to 8 h; the “time at which TNF-α, KC, and MIP-2 transcripts were detected” value was in the range of 60 to 90 min; the “time at which bands for MIP-1α and MCP-1 became visible” value worked out at 2 h. Further, in series [1] (astrocytes treated with RANTES, time course), the “expression of TNF-α, RANTES, KC, IL-6, MIP-1α, MIP-2, and MCP-1 transcripts” value is “up-regulated”. Also, in series [1] (boiled for 30 min before incubation with astrocytes), the “ability to induce chemokine transcripts after boiling” value is “completely destroyed”. For the same substance, the “concentration yielding optimal stimulation of transcripts” value in series [1] (preliminary experiments) worked out at 100 ng/mL. Also, in the series on PKA (100 ng/ml RANTES, 20 min), the “inhibition of PKA activity” value is given as 60%. Further, the “time of maximal reduction of PKA kinase activity” value in the series with PKA (after RANTES stimulation) came out at 10 min. Also, in the series with astrocytes, the “concentration inducing KC protein” value is no less than 10 ng/mL.
